Like-named read-outs stand apart in the source and are kept apart here.
Target: full-length human ATR protein (Homo sapiens (Human), UniProt Q13535)
Test: Binding assay ATR (TR-FRET tracer displacement)
Details: TR-FRET
In short: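 Full-length human GST-ATR co-purified with ATRIP, pre-complexed 30 min at 22 °C with anti-GST-Tb antibody, then pre-bound with compound 10 min. Tracer A or B added (2 µl of 100 nM solution), 30 min at 22 °C.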

[1] = tracer A, read-out: ATR binding (tracer A) IC50
[2] = tracer B, read-out: ATR binding (tracer B) IC50

full-length human ATR protein, sequence (Q13535 other isoform, or with tags, fused parts or gaps): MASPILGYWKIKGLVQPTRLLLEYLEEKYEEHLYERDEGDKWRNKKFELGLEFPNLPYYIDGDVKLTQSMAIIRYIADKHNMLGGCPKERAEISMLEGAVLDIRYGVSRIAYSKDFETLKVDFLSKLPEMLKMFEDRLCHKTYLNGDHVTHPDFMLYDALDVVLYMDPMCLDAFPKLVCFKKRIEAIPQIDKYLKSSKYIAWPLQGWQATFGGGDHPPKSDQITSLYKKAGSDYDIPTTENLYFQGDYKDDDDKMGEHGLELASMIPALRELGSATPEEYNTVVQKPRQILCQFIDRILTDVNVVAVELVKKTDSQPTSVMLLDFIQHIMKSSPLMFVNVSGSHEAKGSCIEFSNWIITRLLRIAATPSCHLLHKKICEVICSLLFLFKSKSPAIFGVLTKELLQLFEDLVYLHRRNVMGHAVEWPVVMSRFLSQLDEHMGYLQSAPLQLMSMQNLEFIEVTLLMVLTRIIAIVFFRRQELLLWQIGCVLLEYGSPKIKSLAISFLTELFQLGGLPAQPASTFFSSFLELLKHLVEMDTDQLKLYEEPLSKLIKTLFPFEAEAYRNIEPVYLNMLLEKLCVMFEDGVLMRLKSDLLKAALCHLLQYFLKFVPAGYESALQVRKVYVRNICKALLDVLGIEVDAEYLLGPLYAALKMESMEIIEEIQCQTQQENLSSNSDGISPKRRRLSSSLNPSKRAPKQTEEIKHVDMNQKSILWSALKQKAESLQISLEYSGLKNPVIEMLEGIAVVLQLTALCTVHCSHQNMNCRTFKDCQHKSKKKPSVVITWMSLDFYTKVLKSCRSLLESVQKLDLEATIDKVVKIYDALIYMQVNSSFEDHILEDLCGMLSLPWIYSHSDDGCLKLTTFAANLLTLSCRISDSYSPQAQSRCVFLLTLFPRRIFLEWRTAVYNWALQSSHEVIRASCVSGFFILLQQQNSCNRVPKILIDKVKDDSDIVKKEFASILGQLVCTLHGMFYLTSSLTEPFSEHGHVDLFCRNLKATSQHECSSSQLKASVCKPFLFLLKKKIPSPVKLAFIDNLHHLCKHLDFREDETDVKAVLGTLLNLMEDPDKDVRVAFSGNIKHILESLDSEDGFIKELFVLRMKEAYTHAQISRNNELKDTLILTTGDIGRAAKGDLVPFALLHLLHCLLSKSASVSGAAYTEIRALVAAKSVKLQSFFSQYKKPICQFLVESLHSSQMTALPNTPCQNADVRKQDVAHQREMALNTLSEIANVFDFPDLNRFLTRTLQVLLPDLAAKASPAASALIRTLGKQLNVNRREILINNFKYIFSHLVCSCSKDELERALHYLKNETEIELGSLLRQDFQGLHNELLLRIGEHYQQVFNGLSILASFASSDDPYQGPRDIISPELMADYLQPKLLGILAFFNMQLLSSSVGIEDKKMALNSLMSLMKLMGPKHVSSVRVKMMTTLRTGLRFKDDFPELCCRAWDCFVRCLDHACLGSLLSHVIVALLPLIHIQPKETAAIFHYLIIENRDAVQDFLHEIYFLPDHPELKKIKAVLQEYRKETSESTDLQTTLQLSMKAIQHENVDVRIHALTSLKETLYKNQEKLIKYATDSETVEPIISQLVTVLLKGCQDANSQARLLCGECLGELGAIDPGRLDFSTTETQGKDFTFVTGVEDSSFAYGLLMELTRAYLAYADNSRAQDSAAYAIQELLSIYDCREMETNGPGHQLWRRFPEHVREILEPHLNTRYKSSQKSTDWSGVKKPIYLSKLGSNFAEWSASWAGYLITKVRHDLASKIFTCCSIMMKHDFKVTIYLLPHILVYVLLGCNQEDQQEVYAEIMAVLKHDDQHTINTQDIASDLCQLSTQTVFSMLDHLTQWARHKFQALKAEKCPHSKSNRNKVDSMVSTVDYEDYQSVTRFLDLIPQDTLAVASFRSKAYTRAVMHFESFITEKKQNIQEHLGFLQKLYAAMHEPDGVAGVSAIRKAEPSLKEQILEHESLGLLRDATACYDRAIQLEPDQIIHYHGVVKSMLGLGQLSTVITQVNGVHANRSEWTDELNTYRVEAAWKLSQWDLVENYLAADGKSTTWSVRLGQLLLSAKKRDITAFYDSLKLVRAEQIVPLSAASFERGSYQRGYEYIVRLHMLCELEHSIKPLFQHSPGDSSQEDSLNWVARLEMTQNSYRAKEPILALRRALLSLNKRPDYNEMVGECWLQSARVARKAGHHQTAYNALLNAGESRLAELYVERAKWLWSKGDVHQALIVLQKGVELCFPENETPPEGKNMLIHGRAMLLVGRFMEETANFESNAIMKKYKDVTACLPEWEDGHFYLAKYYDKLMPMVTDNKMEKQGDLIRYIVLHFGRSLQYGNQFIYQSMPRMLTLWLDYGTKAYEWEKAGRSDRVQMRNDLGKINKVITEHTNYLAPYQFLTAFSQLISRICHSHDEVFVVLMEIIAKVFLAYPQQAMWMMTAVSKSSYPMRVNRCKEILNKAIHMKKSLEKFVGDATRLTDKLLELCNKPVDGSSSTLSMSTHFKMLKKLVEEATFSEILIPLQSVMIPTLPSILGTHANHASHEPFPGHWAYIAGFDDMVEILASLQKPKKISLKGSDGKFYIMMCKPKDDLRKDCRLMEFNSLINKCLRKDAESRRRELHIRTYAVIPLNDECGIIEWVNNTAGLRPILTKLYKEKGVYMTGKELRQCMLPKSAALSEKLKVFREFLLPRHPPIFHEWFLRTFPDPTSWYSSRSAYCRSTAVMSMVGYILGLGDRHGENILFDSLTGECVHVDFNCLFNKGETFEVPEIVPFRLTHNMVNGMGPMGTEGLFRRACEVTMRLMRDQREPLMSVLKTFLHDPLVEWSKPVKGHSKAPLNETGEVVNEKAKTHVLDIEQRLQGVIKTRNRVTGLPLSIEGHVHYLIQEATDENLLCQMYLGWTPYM
full-length human ATR protein, sequence (Q8WXE1 other isoform, or with tags, fused parts or gaps partner): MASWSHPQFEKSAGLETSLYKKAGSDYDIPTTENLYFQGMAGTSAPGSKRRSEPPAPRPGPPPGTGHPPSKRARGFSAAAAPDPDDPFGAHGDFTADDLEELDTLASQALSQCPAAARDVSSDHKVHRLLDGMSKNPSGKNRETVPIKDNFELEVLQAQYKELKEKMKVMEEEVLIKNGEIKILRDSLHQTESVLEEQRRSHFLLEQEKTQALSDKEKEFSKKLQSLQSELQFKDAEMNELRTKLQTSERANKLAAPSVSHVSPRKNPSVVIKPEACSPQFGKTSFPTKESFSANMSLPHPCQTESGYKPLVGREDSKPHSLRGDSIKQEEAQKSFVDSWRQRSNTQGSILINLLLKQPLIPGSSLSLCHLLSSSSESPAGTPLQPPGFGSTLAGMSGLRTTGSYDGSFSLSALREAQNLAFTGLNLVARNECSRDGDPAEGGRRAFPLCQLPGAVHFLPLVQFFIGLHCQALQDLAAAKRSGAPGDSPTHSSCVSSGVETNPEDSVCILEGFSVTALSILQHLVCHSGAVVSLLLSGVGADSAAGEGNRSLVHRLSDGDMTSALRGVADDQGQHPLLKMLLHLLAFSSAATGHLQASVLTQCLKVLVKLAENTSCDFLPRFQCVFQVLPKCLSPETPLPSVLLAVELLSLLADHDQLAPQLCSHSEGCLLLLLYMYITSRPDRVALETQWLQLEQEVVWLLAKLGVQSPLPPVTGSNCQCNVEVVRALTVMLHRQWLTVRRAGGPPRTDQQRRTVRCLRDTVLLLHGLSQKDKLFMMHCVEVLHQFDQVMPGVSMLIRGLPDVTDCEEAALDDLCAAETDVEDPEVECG

C[C@@H]1COCCN1c1cc(OCCNC(=O)OC(C)(C)C)c2ccnc(-c3ccn[nH]3)c2n1 [Example 56, Tert-butyl [2-({2-[(3R)-3-methylmorpholin-4-yl]-8-(1H-pyrazol-5-yl)-1,7-naphthyridin-4-yl}oxy)ethyl]carbamate]
IC50 [1]: 751 nM
IC50 [2]: 324 nM

C[C@@H]1COCCN1c1cc(-c2ccn(CCO)n2)c2ccnc(-c3ccn[nH]3)c2n1 [Example 160, 2-(3-{2-[(3R)-3-methylmorpholin-4-yl]-8-(1H-pyrazol-5-yl)-1,7-naphthyridin-4-yl}-1H-pyrazol-1-yl)ethanol]
IC50 [1]: 37.2 nM

C[C@@H]1COCCN1c1cc(-c2cnn(C(C)(C)C)c2)c2ccnc(-c3ccn[nH]3)c2n1 [Example 257, 4-(1-tert-butyl-1H-pyrazol-4-yl)-2-[(3R)-3-methylmorpholin-4-yl]-8-(1H-pyrazol-5-yl)-1,7-naphthyridine]
IC50 [1]: 58.8 nM

COc1ccc(-c2cc(N3CCOCC3)nc3c(-c4ccn[nH]4)nccc23)c(OC)c1 [Example 332, 4-(2,4-dimethoxyphenyl)-2-(morpholin-4-yl)-8-(1H-pyrazol-5-yl)-1,7-naphthyridine]
IC50 [1]: 68.1 nM

CC(C)CN(C)c1cc(N2CCOCC2)nc2c(-c3ccn[nH]3)nccc12 [Example 423, N-methyl-N-(2-methylpropyl)-2-(morpholin-4-yl)-8-(1H-pyrazol-5-yl)-1,7-naphthyridin-4-amine]
IC50 [1]: 83.9 nM

C[C@@H]1COCCN1c1cc(-c2cccc(C(C)(C)O)c2)c2ccnc(-c3ccn[nH]3)c2n1 [Example 168, 2-(3-{2-[(3R)-3-methylmorpholin-4-yl]-8-(1H-pyrazol-5-yl)-1,7-naphthyridin-4-yl}phenyl)propan-2-ol]
IC50 [1]: 530 nM

C[C@@H]1COCCN1c1cc(-c2ccc(F)cn2)c2ccnc(-c3ccn[nH]3)c2n1 [Example 163, 4-(5-fluoropyridin-2-yl)-2-[(3R)-3-methylmorpholin-4-yl]-8-(1H-pyrazol-5-yl)-1,7-naphthyridine]
IC50 [1]: 107 nM

C[C@@H]1COCCN1c1cc(N2CCC(CO)CC2)c2ccnc(-c3ccn[nH]3)c2n1 [Example 84, (1-{2-[(3R)-3-methylmorpholin-4-yl]-8-(1H-pyrazol-5-yl)-1,7-naphthyridin-4-yl}piperidin-4-yl)methanol]
IC50 [1]: 6.6 nM

FC(F)(F)c1ccc(-c2cc(N3CCOCC3)nc3c(-c4ccn[nH]4)nccc23)cc1 [Example 302, 2-(morpholin-4-yl)-8-(1H-pyrazol-5-yl)-4-[4-(trifluoromethyl)phenyl]-1,7-naphthyridine]
IC50 [1]: 188 nM

C[C@@H]1COCCN1c1cc(-c2ccnc3[nH]ccc23)c2ccnc(-c3ccn[nH]3)c2n1 [Example 104, 2-[(3R)-3-methylmorpholin-4-yl]-8-(1H-pyrazol-5-yl)-4-(1H-pyrrolo[2,3-b]pyridin-4-yl)-1,7-naphthyridine]
IC50 [1]: 14.1 nM

CSc1cc(N2CCOC[C@H]2C)nc2c(-c3ccn[nH]3)nccc12 [Example 63, 2-[(3R)-3-methylmorpholin-4-yl]-4-(methylsulfanyl)-8-(1H-pyrazol-5-yl)-1,7-naphthyridine]
IC50 [1]: 80.7 nM
IC50 [2]: 30.7 nM

C[C@@H]1COCCN1c1cc(-c2cc(F)ccc2N)c2ccnc(-c3ccn[nH]3)c2n1 [Example 75, 4-fluoro-2-[2-[(3R)-3-methylmorpholin-4-yl]-8-(1H-pyrazol-5-yl)-1,7-naphthyridin-4-yl]aniline]
IC50 [1]: 6.97 nM

C[C@@H]1COCCN1c1cc(-c2cncc3ccccc23)c2ccnc(-c3ccn[nH]3)c2n1 [Example 237, 4-(isoquinolin-4-yl)-2-[(3R)-3-methylmorpholin-4-yl]-8-(1H-pyrazol-5-yl)-1,7-naphthyridine]
IC50 [1]: 18.2 nM

C[C@@H]1COCCN1c1cc(N=S(C)(=O)c2ccccc2F)c2ccnc(-c3ccn[nH]3)c2n1 (single isomer, unassigned) [Example 141]
IC50 [1]: 386 nM

C[C@@H]1COCCN1c1cc(-c2ccns2)c2ccnc(-c3ccn[nH]3)c2n1 [Example 121, 2-[(3R)-3-methylmorpholin-4-yl]-8-(1H-pyrazol-5-yl)-4-(1,2-thiazol-5-yl)-1,7-naphthyridine]
IC50 [1]: 17.4 nM

C[C@@H]1COCCN1c1cc(-c2cccc(F)c2F)c2ccnc(-c3ccn[nH]3)c2n1 [Example 72, 4-(2,3-difluorophenyl)-2-[(3R)-3-methylmorpholin-4-yl]-8-(1H-pyrazol-5-yl)-1,7-naphthyridine]
IC50 [1]: 6.33 nM

C[C@@H]1COCCN1c1cc([C@H]2C[C@@H]2C)c2ccnc(-c3ccn[nH]3)c2n1 (stereo in doubt) [Example 171, 4-[(trans)-2-methylcyclopropyl]-2-[(3R)-3-methylmorpholin-4-yl]-8-(1H-pyrazol-5-yl)-1,7-naphthyridine]
IC50 [1]: 94.7 nM

COc1ncccc1-c1cc(N2CCOC[C@H]2C)nc2c(-c3ccn[nH]3)nccc12 [Example 220, 4-(2-methoxypyridin-3-yl)-2-[(3R)-3-methylmorpholin-4-yl]-8-(1H-pyrazol-5-yl)-1,7-naphthyridine]
IC50 [1]: 32.4 nM

Cc1ccc(-c2cc(N3CCOCC3)nc3c(-c4ccn[nH]4)nccc23)cn1 [Example 388, 4-(6-methylpyridin-3-yl)-2-(morpholin-4-yl)-8-(1H-pyrazol-5-yl)-1,7-naphthyridine]
IC50 [1]: 79.1 nM

Cc1cccc(-c2cc(N3CCOCC3)nc3c(-c4ccn[nH]4)nccc23)c1C [Example 312, 4-(2,3-dimethylphenyl)-2-(morpholin-4-yl)-8-(1H-pyrazol-5-yl)-1,7-naphthyridine]
IC50 [1]: 23.7 nM

CN(c1cccc(F)c1)c1cc(N2CCOCC2)nc2c(-c3ccn[nH]3)nccc12 [Example 424, N-(3-fluorophenyl)-N-methyl-2-(morpholin-4-yl)-8-(1H-pyrazol-5-yl)-1,7-naphthyridin-4-amine]
IC50 [1]: 241 nM

Cc1nn(C)cc1-c1cc(N2CCOC[C@H]2C)nc2c(-c3ccn[nH]3)nccc12 [Example 249, 4-(1,3-dimethyl-1H-pyrazol-4-yl)-2-[(3R)-3-methylmorpholin-4-yl]-8-(1H-pyrazol-5-yl)-1,7-naphthyridine]
IC50 [1]: 13.7 nM

Cc1c(-c2cc(N3CCOC[C@H]3C)nc3c(-c4ccn[nH]4)nccc23)cnn1C [Example 250, 4-(1,5-dimethyl-1H-pyrazol-4-yl)-2-[(3R)-3-methylmorpholin-4-yl]-8-(1H-pyrazol-5-yl)-1,7-naphthyridine]
IC50 [1]: 6.62 nM

C[C@@H]1COCCN1c1cc(-c2cccnc2O)c2ccnc(-c3ccn[nH]3)c2n1 [Example 167, 3-{2-[(3R)-3-methylmorpholin-4-yl]-8-(1H-pyrazol-5-yl)-1,7-naphthyridin-4-yl}pyridin-2-ol]
IC50 [1]: 408 nM

CCCCC(C)(O)c1cc(N2CCOC[C@H]2C)nc2c(-c3ccn[nH]3)nccc12 (stereo partly drawn) [Example 284, 2-{2-[(3R)-3-methylmorpholin-4-yl]-8-(1H-pyrazol-5-yl)-1,7-naphthyridin-4-yl}hexan-2-ol]
IC50 [1]: 41.6 nM

NC(=O)c1cc(N2CCOCC2)nc2c(-c3cc[nH]n3)nccc12 [Example 36, 2-morpholin-4-yl-8-(1H-pyrazol-3-yl)-[1,7]naphthyridine-4-carboxamide]
IC50 [1]: 1500 nM

CCOC(=O)N=S(C)(=O)c1ccc(-c2cc(N3CCOCC3)nc3c(-c4ccn[nH]4)nccc23)cc1 (stereo not shown) [Example 1]
IC50 [1]: 36.8 nM
IC50 [2]: 23.9 nM

CCS(=N)(=O)c1ccc(-c2cc(N3CCOCC3)nc3c(-c4ccn[nH]4)nccc23)cc1 (stereo not shown) [Example 12, 4-[4-(S-ethylsulfonimidoyl)phenyl]-2-(morpholin-4-yl)-8-(1H-pyrazol-5-yl)-1,7-naphthyridine]
IC50 [1]: 135 nM
IC50 [2]: 47.2 nM

Cc1cc(-c2cc(N3CCOC[C@H]3C)nc3c(-c4ccn[nH]4)nccc23)c(C)n1C [Example 264, 2-[(3R)-3-methylmorpholin-4-yl]-8-(1H-pyrazol-5-yl)-4-(1,2,5-trimethyl-1H-pyrrol-3-yl)-1,7-naphthyridine]
IC50 [1]: 25.5 nM

CC(C)COP(C)(=O)c1cc(N2CCOC[C@H]2C)nc2c(-c3ccn[nH]3)nccc12 (stereo partly drawn) [Example 127, Isobutyl methyl{2-[(3R)-3-methylmorpholin-4-yl]-8-(1H-pyrazol-5-yl)-1,7-naphthyridin-4-yl}phosphinate]
IC50 [1]: 25.5 nM

CN(C)c1ccccc1-c1cc(N2CCOCC2)nc2c(-c3ccn[nH]3)nccc12 [Example 321, N,N-dimethyl-2-[2-(morpholin-4-yl)-8-(1H-pyrazol-5-yl)-1,7-naphthyridin-4-yl]aniline]
IC50 [1]: 44.4 nM

Nc1ccc(-c2cc(N3CCOCC3)nc3c(-c4ccn[nH]4)nccc23)cn1 [Example 386, 5-[2-(morpholin-4-yl)-8-(1H-pyrazol-5-yl)-1,7-naphthyridin-4-yl]pyridin-2-amine]
IC50 [1]: 173 nM

C[C@@H]1COCCN1c1cc(-c2cn(C)nc2C(F)(F)F)c2ccnc(-c3ccn[nH]3)c2n1 [Example 259, 2-[(3R)-3-methylmorpholin-4-yl]-4-[1-methyl-3-(trifluoromethyl)-1H-pyrazol-4-yl]-8-(1H-pyrazol-5-yl)-1,7-naphthyridine]
IC50 [1]: 17.1 nM

c1cc(-c2nccc3c(N4C[C@H]5COC[C@H]5C4)cc(N4CCOCC4)nc23)[nH]n1 [Example 183, 2-(morpholin-4-yl)-8-(1H-pyrazol-5-yl)-4-[(3aR,6aS)-tetrahydro-1H-furo[3,4-c]pyrrol-5(3H)-yl]-1,7-naphthyridine]
IC50 [1]: 649 nM

CC(C)Oc1cc(N2CCOC[C@H]2C)nc2c(-c3cc[nH]n3)nccc12 [Example 51, 4-isopropoxy-2-((R)-3-methylmorpholin-4-yl)-8-(1H-pyrazol-3-yl)-[1,7]naphthyridine]
IC50 [1]: 38 nM
IC50 [2]: 23.3 nM

CS(=O)(=O)c1cccc(-c2cc(N3CCOCC3)nc3c(-c4cc[nH]n4)nccc23)c1 [Example 15, 4-(3-methanesulphonylphenyl)-2-(morpholin-4-yl)-8-(1H-pyrazol-3-yl)-[1,7]naphthyridine]
IC50 [1]: 163 nM
IC50 [2]: 174 nM

C[S+]([O-])c1cc(N2CCOCC2)nc2c(-c3ccn[nH]3)nccc12 (stereo not shown) [Example 202, 4-(methylsulfinyl)-2-(morpholin-4-yl)-8-(1H-pyrazol-5-yl)-1,7-naphthyridine]
IC50 [1]: 78.3 nM

From US9549932B2, “2-(morpholin-4-yl)-1,7-naphthyridines” (BAYER PHARMA AKTIENGESELLSCHAFT, priority 2014, dated 2017)
